# Experimental data: the supplement of paper PMC10307832
# Columns and labels:
# Experiment in all cases: relative viability (nuclei count vs DMSO), 5 days (fraction); higher = more cells survive
# [1] = compound: C[C@@H](N)c1ccc(C(=O)Nc2ccnc3[nH]ccc23)cc1 + COc1cccc2cc(-c3nc([C@H]4CC[C@H](C(=O)O)CC4)n4ncnc(N)c34)[nH]c12 [OSI-027] (partner 0.5 µM)
# In short: (§1)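 Lung cancer cell lines in 1536-well plates got either a single drug or a fixed anchor-drug dose together with five library-drug doses (not always all listed) in √10 steps, by pin tool, on the day after seeding. Nuclei were counted after 5 days, and relative viability is the treated-to-vehicle ratio of nuclei counts. Values are medians of duplicate plates.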
# [2] = compound: O[C@H]1CC[C@H](Nc2ncc3nc(Nc4c(F)cc(F)cc4F)n([C@H]4CCOC4)c3n2)CC1 [Tanzisertib] + C[C@]1(O)C[C@@H](c2nc(-c3ccc4ccc(-c5ccccc5)nc4c3)c3c(N)nccn32)C1 [Linsitinib] (partner 1 µM)
# In short: as §1
# [3] = compound: O[C@H]1CC[C@H](Nc2ncc3nc(Nc4c(F)cc(F)cc4F)n([C@H]4CCOC4)c3n2)CC1 [Tanzisertib] + CC(=O)Nc1cccc(-n2c(=O)n(C3CC3)c(=O)c3c(Nc4ccc(I)cc4F)n(C)c(=O)c(C)c32)c1 [Trametinib] (partner 0.02 µM)
# In short: as §1
# [4] = compound: C1CNCCC1C2=CC(=NN2)C3=CC=NC=C3 + CC1(C)CCC(c2ccc(Cl)cc2)=C(CN2CCN(c3ccc(C(=O)NS(=O)(=O)c4ccc(N[C@H](CCN5CCOCC5)CSc5ccccc5)c(S(=O)(=O)C(F)(F)F)c4)cc3)CC2)C1 [Navitoclax] (partner 0.5 µM)
# In short: as §1
Cell Line,relative viability ([1]; first compound 0.04 µM),relative viability ([1]; first compound 0.1265 µM),relative viability ([1]; first compound 0.4 µM),relative viability ([1]; first compound 4 µM),relative viability ([2]; first compound 0.08 µM),relative viability ([2]; first compound 0.253 µM),relative viability ([2]; first compound 0.8 µM),relative viability ([2]; first compound 2.53 µM),relative viability ([2]; first compound 8 µM),relative viability ([3]; first compound 0.08 µM),relative viability ([3]; first compound 0.253 µM),relative viability ([3]; first compound 0.8 µM),relative viability ([3]; first compound 2.53 µM),relative viability ([3]; first compound 8 µM),relative viability ([4]; first compound 0.08 µM),relative viability ([4]; first compound 0.8 µM),relative viability ([4]; first compound 2.53 µM),relative viability ([4]; first compound 8 µM),relative viability ([1]; first compound 1.265 µM)
NCI-H1793,0.322,0.284,0.254,0.355,1.04,0.686,0.972,0.884,0.816,0.65,0.419,0.475,0.398,0.542,0.305,0.331,0.414,0.526,
LU99A,,0.328,0.292,0.316,0.557,0.481,0.505,0.523,0.537,0.632,0.573,0.591,0.531,0.559,0.662,0.872,0.776,0.732,0.277
PC-14,0.846,0.968,0.904,0.625,1,0.987,0.885,0.942,0.572,0.886,0.673,0.805,0.666,0.295,0.987,1.13,1.06,0.979,0.712
NCI-H2085,0.744,0.816,0.77,0.717,1.03,0.808,0.905,0.826,0.83,,0.604,0.436,0.556,0.491,1.21,0.869,1.18,1.24,0.397
HCC-78,0.54,0.389,0.476,0.544,0.478,0.524,0.528,0.367,0.529,0.847,0.737,0.889,0.787,0.842,0.729,,0.836,0.884,0.388
NCI-H1395,0.637,0.739,0.685,0.588,1.32,0.956,1.08,1.04,1.05,1.03,0.932,0.989,0.991,1.05,1.15,0.976,1.23,1.13,0.389
NCI-H2126,0.9,0.654,0.797,0.944,0.814,0.77,0.712,0.726,0.736,0.56,0.597,0.611,0.546,0.59,0.858,0.832,0.821,0.828,
H3255,0.624,0.727,0.745,0.783,0.966,0.841,0.983,0.907,0.636,0.696,0.646,0.766,0.726,0.523,0.52,0.444,0.738,0.537,0.725
HCC-15,0.695,0.632,0.681,0.619,1.05,0.833,0.896,0.786,0.924,0.406,0.364,0.414,0.36,0.342,0.756,0.785,0.706,0.662,
NCI-H2009,0.675,0.77,0.655,0.624,1.22,1.17,1.17,1.26,1.21,0.316,0.274,0.274,0.247,0.21,1.16,1.18,1.17,1.14,0.714
HCC-44,0.37,0.433,0.644,0.482,0.683,0.74,0.673,0.602,0.724,1.17,1.08,1.09,0.979,1.06,0.931,1,1.07,0.971,0.19
COR-L23,0.775,0.838,0.755,0.669,1.09,0.874,0.896,1.02,0.934,0.717,0.627,0.7,0.616,0.547,0.905,1.3,1.1,1.03,0.748
EMC-BAC-2,0.294,0.399,0.299,0.279,0.825,0.806,0.825,0.743,0.771,0.904,0.84,0.864,0.955,0.962,1.11,1.37,1.25,1.14,0.346
LK-2,0.295,0.176,0.212,0.249,0.522,0.519,0.724,0.624,0.637,0.916,0.76,0.816,0.694,0.866,0.674,1.25,0.843,0.87,
SW 1573,0.694,0.604,0.69,0.485,0.968,0.85,0.703,0.753,0.672,0.555,0.514,0.547,0.521,0.456,0.778,1.2,1.19,1.09,0.485
NCI-H2405,0.594,0.742,0.695,0.36,0.954,0.881,0.968,0.904,0.702,0.766,0.559,0.565,0.52,0.44,1.03,0.823,1.5,0.849,0.542
NCI-H2087,1.02,0.721,0.924,0.613,1.12,1.07,0.98,1.24,0.957,0.256,0.171,0.21,0.181,0.182,1.04,0.973,0.969,0.903,
